Measured values as given in paper PMC8908507 (ACS Omega, 2022).
“Also recorded” adds a separate entry of the source.

Key:
[1] = tested on: human MAO-B; conditions: read-out: IC50 human MAO-B; cited from earlier work
[2] = target: AChE (Electrophorus electricus, UniProt O42275); experiment: AChE inhibition; conditions: 10 μM
[3] = tested on: Vero cells; experiment: Cytotoxicity on Vero cells, MTT method; type: cell-based, African green monkey; conditions: 100 μg/mL, 24 h
[4] = Cytotoxicity on Vero cells, MTT method; type: cell-based, African green monkey; conditions: African green monkey, Vero cells (normal kidney epithelial cell line)
[5] = target: BACE1 (Homo sapiens, UniProt P56817); experiment: biochemical; conditions: read-out: residual activity (%) BACE1
[6] = target: T1, MAO-B (Homo sapiens, UniProt P27338); experiment: MAO-B inhibition, recombinant enzyme, benzylamine substrate; type: biochemical
T1 sequence (P27338 1-520): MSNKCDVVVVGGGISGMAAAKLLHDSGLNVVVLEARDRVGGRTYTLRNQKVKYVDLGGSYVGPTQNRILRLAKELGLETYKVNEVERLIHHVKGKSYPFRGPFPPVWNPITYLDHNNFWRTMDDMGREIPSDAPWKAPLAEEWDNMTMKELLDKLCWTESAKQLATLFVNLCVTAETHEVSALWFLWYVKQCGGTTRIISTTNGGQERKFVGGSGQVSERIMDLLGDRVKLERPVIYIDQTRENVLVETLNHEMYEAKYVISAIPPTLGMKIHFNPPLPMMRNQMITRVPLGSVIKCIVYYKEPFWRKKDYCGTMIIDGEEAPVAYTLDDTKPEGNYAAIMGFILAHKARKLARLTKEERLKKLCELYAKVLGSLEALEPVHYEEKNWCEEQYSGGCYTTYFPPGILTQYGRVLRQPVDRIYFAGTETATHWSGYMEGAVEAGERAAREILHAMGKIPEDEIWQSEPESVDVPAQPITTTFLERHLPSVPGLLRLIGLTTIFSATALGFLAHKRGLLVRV

[7] = target: BChE (Equus caballus, UniProt P81908); conditions: 10 μM
[8] = tested on: Vero cells; experiment: Intracellular ROS assay in H2O2-treated Vero cells; type: cell-based, African green monkey; conditions: 24 h drug treatment, vs H2O2-treated control
[9] = target: T2, MAO-A (Homo sapiens, UniProt P21397); experiment: biochemical
T2 sequence (P21397 1-527): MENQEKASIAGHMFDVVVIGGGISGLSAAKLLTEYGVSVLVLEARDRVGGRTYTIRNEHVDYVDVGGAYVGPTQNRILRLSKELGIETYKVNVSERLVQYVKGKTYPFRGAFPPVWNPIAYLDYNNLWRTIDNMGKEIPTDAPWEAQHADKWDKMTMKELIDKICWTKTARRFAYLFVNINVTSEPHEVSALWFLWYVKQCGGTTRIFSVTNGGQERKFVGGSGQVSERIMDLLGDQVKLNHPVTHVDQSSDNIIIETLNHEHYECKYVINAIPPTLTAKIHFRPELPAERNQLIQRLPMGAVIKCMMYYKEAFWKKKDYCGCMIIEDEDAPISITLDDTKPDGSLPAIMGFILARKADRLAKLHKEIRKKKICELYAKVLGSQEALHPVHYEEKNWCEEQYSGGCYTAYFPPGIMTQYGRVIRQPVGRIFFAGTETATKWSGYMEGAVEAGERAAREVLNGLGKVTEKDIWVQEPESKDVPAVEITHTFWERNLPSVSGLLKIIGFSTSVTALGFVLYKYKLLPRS

[10] = target: T1, MAO-B; experiment: MAO-B enzyme kinetics, Lineweaver–Burk and secondary plots; type: biochemical
[11] = target: T1, MAO-B; experiment: Reversibility of MAO-B inhibition by dialysis; type: biochemical

Sequence of BChE (P81908 whole entry): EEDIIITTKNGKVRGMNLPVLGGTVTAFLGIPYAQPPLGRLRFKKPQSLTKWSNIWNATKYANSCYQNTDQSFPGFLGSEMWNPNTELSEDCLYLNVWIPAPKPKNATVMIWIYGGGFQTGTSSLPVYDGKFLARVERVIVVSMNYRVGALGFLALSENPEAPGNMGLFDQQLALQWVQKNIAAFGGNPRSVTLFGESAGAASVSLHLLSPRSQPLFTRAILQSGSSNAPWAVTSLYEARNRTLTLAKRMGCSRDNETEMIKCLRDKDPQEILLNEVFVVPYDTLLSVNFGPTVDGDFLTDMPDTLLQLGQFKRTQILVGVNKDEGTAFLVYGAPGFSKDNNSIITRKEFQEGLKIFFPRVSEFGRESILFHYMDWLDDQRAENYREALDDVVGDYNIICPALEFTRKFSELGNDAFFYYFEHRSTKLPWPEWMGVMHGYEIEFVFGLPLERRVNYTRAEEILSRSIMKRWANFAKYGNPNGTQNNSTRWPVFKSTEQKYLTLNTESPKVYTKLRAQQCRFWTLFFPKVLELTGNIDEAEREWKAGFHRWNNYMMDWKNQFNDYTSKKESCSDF
Sequence of AChE (O42275 24-633): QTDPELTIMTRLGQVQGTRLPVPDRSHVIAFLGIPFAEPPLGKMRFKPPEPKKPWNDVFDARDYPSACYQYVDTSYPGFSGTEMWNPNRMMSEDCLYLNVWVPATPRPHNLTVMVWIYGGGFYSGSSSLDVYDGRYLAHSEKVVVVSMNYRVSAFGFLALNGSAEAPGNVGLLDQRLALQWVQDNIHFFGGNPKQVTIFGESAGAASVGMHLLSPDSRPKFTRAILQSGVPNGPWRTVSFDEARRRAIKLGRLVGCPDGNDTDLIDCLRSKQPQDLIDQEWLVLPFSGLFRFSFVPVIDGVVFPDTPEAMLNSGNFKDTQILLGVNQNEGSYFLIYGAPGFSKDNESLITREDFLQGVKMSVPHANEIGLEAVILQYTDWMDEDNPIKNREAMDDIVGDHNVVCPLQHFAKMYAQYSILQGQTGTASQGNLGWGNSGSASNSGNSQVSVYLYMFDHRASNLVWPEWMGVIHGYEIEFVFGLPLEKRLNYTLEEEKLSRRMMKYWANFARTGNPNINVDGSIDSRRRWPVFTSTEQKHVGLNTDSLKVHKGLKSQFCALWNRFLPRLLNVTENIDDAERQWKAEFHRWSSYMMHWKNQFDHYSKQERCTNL
Sequence of BACE1 (P56817 46-501): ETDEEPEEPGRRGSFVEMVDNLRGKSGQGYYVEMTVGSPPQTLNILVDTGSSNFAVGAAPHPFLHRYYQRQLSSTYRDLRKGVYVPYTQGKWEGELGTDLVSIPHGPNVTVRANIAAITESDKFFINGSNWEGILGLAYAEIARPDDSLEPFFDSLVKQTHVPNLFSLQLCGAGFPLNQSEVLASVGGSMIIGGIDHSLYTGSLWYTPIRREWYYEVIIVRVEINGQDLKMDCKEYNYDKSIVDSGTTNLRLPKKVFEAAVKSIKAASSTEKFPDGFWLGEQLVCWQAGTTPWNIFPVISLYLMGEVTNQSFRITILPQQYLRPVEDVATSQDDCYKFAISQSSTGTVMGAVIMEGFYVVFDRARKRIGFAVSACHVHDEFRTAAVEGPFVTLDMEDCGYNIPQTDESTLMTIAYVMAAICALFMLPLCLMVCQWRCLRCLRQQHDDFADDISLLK

Compound	IC50 [1] [nM]	residual activity (%) AChE [2] [%]	toxicity by cellular morphology, phase-contrast microscopy [3]	viability at 24 h, 40 μg/mL [4] [%]	remaining activity at 10 µM [5] [%]	SI (MAO-B compared with MAO-A) ([6]; IC50 (MAO-A)/IC50 (MAO-B))	IC50 ([6]; IC50 MAO-B) [nM]	remaining activity at 1 µM ([6]; read-out: residual activity (%) MAO-B) [%]	times higher inhibitory activity than pargyline (MAO-B) ([6]; vs reference irreversible MAO-B inhibitor pargyline) [times]	times more potent than lazabemide (MAO-B) ([6]; vs reference reversible MAO-B drug lazabemide) [times]	residual activity (%) BChE [7] [%]	intracellular ROS scavenging [8]	IC50 [9] [nM]	remaining activity at 10 µM ([9]; read-out: residual activity (%) MAO-A) [%]	Ki [10] [nM]	inhibition type for MAO-B ([10]; Lineweaver–Burk plots)	relative MAO-B activity, dialyzed (AD) ([11]; MK6/MK12 6.0 nM, lazabemide 0.22 μM, pargyline 0.28 μM, after dialysis) [%]	relative MAO-B activity, undialyzed (AU) ([11]; MK6/MK12 6.0 nM, lazabemide 0.22 μM, pargyline 0.28 μM, preincubation 30 min) [%]	reversibility of MAO-B inhibition ([11]; dialysis)
O=C(/C=C/C=C/c1ccc(Cl)cc1)c1ccc(O)cc1O [(2E,4E)-5-(4-chlorophenyl)-1-(2,4-dihydroxyphenyl)penta-2,4-dien-1-one]	11.3																		
COc1ccc(C(=O)/C=C/C=C/c2ccc(Cl)cc2)c(O)c1 [(2E,4E)-5-(4-chlorophenyl)-1-(2-hydroxy-4-methoxyphenyl)penta-2,4-dien-1-one]	4.51																		
COc1ccc(/C=C/C=C/C(=O)c2ccc(F)cc2)cc1 [MK12, (2E,4E)-1-(4-Fluorophenyl)-5-(4-methoxyphenyl)penta-2,4-dien-1-one]		93.3 ± 0.73	most toxic of the four tested compounds	> 80	81.4 ± 1.03	1780.5	3.22 ± 0.04	-2.71	44	34	94.6 ± 1.11	significant scavenging effect of reactive oxygen species; also recorded: significant ROS scavenging effect	5700 ± 720	40.9 ± 1.24	3 ± 0.27	competitive inhibitors	74.7	33.4	reversible inhibitors
